Data taken from ChEMBL document CHEMBL1909046, “DrugMatrix in vitro pharmacology data”.

Columns and labels:
B2 bradykinin receptor = target: T1, B2 bradykinin receptor (Homo sapiens, UniProt P30411); format: cell membranes, Membrane; settings: chem-1; also: in other assays of this panel Not Active means under 50% inhibition at 10 µM
T1 sequence (P30411 whole entry): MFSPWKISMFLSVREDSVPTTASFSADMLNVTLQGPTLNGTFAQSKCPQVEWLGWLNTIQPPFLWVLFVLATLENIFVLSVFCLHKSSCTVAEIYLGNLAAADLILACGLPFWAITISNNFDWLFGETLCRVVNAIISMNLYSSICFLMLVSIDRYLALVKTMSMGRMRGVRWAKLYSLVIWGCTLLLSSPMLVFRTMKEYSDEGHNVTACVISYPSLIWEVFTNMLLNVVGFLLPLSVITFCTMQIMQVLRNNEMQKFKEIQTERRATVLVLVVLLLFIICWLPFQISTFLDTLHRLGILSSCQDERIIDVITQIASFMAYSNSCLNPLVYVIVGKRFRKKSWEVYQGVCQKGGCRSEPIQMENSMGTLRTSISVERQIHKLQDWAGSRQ

Substance-K receptor = target: T2, Substance-K receptor (Homo sapiens, UniProt P21452); format: cell membranes, CHO, Membrane; also: in other assays of this panel Not Active means under 50% inhibition at 10 µM
T2 sequence (P21452 whole entry): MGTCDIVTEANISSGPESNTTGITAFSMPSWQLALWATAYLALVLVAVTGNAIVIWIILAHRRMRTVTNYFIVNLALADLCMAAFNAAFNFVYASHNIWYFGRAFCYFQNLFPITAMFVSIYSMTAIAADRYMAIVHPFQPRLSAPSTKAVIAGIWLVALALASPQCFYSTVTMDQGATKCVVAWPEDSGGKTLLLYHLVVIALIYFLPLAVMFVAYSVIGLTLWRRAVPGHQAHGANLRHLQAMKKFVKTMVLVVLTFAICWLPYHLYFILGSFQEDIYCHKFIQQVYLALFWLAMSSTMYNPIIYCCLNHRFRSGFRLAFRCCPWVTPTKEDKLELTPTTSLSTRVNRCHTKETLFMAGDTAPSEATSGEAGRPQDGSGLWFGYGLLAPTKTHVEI

[1] = DRUGMATRIX: Glutamate, NMDA, Agonism radioligand binding (ligand: [3H] CGP-39653); format: cell membranes, Rattus norvegicus, Wistar, Cerebral cortex, Membrane; settings: Not Active = under 50% inhibition at 10 µM
[2] = target: T3, Nitric oxide synthase, inducible (Mus musculus, UniProt P29477); parameters: species or system Escherichia coli;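 also: inhibition of iNOS enzyme activity measured with L-arginine as substrate; in other assays of this panel Not Active means under 50% inhibition at 10 µM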
T3 sequence (P29477 whole entry): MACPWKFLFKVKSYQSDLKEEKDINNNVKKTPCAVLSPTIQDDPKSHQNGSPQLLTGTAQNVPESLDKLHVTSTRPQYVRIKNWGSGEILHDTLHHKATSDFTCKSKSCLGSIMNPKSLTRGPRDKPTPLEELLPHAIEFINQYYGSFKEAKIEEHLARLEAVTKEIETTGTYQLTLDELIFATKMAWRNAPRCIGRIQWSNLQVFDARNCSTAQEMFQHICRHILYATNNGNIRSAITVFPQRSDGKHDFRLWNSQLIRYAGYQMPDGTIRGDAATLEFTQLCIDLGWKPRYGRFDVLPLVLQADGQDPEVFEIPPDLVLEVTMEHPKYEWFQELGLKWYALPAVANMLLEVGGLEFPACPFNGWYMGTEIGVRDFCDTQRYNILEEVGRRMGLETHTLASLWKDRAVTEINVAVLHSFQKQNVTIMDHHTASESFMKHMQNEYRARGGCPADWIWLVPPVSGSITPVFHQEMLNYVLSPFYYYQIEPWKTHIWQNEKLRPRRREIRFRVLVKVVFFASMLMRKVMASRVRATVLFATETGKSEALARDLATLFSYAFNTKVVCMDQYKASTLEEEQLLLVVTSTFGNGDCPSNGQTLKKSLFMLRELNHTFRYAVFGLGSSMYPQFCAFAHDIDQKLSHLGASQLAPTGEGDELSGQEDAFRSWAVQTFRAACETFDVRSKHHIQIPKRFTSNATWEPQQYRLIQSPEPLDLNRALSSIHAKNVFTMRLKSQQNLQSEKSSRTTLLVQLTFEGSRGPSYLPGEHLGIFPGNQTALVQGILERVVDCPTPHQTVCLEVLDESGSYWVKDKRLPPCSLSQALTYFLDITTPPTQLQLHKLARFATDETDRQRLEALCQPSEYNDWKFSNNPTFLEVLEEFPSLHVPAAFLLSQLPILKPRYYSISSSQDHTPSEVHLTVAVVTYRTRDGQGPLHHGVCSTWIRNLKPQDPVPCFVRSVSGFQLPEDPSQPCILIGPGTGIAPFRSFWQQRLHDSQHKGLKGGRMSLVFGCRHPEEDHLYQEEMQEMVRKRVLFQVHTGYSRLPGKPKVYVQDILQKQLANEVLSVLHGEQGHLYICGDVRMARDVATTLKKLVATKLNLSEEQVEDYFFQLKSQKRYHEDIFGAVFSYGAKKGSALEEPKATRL

[3] = DRUGMATRIX: Phorbol Ester radioligand binding (ligand: [3H] PDBu); format: cell membranes, Mus musculus, ICR, Brain, Membrane; settings: Not Active = under 50% inhibition at 10 µM
[4] = target: 5-hydroxytryptamine receptor 1B (Rattus norvegicus, UniProt P28564); format: cell membranes, Wistar, Cerebral cortex, Membrane; also: in other assays of this panel Not Active means under 50% inhibition at 10 µM
5-hydroxytryptamine receptor 1B, sequence (P28564 whole entry): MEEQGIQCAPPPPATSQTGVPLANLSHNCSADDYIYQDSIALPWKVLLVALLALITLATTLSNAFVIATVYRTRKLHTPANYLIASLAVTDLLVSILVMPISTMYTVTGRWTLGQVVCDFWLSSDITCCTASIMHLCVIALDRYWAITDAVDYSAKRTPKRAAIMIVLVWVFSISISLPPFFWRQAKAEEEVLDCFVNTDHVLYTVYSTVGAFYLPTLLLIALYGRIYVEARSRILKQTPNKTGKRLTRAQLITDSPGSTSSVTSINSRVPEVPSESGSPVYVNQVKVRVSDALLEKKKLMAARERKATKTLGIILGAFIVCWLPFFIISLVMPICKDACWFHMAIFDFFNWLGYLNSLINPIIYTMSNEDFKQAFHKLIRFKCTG

Cytochrome P450 2D6 = Cytochrome P450 2D6 (Homo sapiens, UniProt P10635); settings: bti-tn-5b1-4; also: in other assays of this panel Not Active means under 50% inhibition at 10 µM
Cytochrome P450 2D6, sequence (P10635 whole entry): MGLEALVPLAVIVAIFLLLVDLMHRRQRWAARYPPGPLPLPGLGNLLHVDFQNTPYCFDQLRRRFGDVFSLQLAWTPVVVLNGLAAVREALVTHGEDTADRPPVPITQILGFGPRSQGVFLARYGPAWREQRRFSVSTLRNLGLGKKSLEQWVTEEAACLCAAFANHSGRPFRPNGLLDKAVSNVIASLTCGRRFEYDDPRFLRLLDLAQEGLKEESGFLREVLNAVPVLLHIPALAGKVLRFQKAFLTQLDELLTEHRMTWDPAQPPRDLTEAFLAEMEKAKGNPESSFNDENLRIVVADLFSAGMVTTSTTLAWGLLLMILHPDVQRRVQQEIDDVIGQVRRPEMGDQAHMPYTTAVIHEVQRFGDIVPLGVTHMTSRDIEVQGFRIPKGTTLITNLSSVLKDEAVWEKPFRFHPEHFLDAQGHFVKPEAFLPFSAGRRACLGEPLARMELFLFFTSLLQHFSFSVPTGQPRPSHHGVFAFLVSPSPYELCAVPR

Compound | IC50 (B2 bradykinin receptor) | IC50 (Substance-K receptor; cho) | IC50 [1] | Ki [1] | IC50 [2] | IC50 [3] | Ki [3] | IC50 [4] | IC50 (Cytochrome P450 2D6) | Ki (Cytochrome P450 2D6) | Ki (B2 bradykinin receptor) | Ki (Substance-K receptor; cho) | Ki [2] | Ki [4] | IC50 (Substance-K receptor; read-out: IC50) [µM] | Ki (Substance-K receptor; read-out: Ki) [µM]
C[C@]12C=CC(=O)C=C1CC[C@H]1[C@@H]3C[C@@H](O)[C@](O)(C(=O)CO)[C@@]3(C)C[C@H](O)[C@@]12F [TRIAMCINOLONE] | Not Active | Not Active | Not Active | Not Active | Not Active | Not Active | Not Active | Not Active | Not Active | Not Active | – | – | – | – | – | –
CN1CCN(c2c(F)cc3c(=O)c(C(=O)O)cn(CCF)c3c2F)CC1 [FLEROXACIN] | Not Active | Not Active | Not Active | Not Active | Not Active | Not Active | Not Active | Not Active | Not Active | Not Active | – | – | – | – | – | –
CC(O)(P(=O)(O)O)P(=O)(O)O [ETIDRONIC ACID] | Not Active | Not Active | Not Active | Not Active | Not Active | Not Active | Not Active | Not Active | Not Active | Not Active | – | – | – | – | – | –
CCOC(=O)c1ncn2c1CN(C)C(=O)c1cc(F)ccc1-2 [FLUMAZENIL] | Not Active | Not Active | Not Active | Not Active | Not Active | Not Active | Not Active | Not Active | Not Active | Not Active | – | – | – | – | – | –
COc1ccc2c(c1OC)C(=O)O[C@@H]2[C@H]1c2c(cc3c(c2OC)OCO3)CCN1C [NOSCAPINE] | Not Active | Not Active | Not Active | Not Active | Not Active | Not Active | Not Active | Not Active | Not Active | Not Active | – | – | – | – | – | –
COBALTOUS CHLORIDE | Not Active | Not Active | Not Active | Not Active | Not Active | Not Active | Not Active | Not Active | Not Active | Not Active | Not Active | Not Active | Not Active | Not Active | – | –
CC(=O)Oc1ccccc1C(=O)O [ASPIRIN] | Not Active | Not Active | Not Active | Not Active | Not Active | Not Active | Not Active | Not Active | Not Active | Not Active | – | – | – | – | – | –
CCN(CC)CCNC(=O)c1ccc(N)cc1 [PROCAINAMIDE] | Not Active | Not Active | Not Active | Not Active | Not Active | Not Active | Not Active | Not Active | Not Active | Not Active | – | – | – | – | – | –
Cc1c(O)cccc1C(=O)N[C@@H](CSc1ccccc1)[C@H](O)CN1C[C@H]2CCCC[C@H]2C[C@H]1C(=O)NC(C)(C)C | Not Active | – | Not Active | Not Active | Not Active | Not Active | Not Active | Not Active | Not Active | Not Active | – | – | – | – | 29.4 | 9.79
Cc1cccc(C)c1NC(=O)C1CCCCN1C (stereo not given) [MEPIVACAINE] | Not Active | Not Active | Not Active | Not Active | Not Active | Not Active | Not Active | Not Active | Not Active | Not Active | – | – | – | – | – | –
O=c1[nH]c(=O)n([C@H]2C[C@H](O)[C@@H](CO)O2)cc1F [FLOXURIDINE] | Not Active | Not Active | Not Active | Not Active | Not Active | Not Active | Not Active | Not Active | Not Active | Not Active | – | – | – | – | – | –
O=C(O)CC(O)(CC(=O)O)C(=O)O [CITRIC ACID] | Not Active | Not Active | Not Active | Not Active | Not Active | Not Active | Not Active | Not Active | Not Active | Not Active | – | – | – | – | – | –
Cc1cc(O)cc(C)c1Cl [CHLOROXYLENOL] | Not Active | Not Active | Not Active | Not Active | Not Active | Not Active | Not Active | Not Active | Not Active | Not Active | – | – | – | – | – | –
O=C(O)CCCc1cccs1 | Not Active | Not Active | Not Active | Not Active | Not Active | Not Active | Not Active | Not Active | Not Active | Not Active | – | – | – | – | – | –
CCCNC(=O)NS(=O)(=O)c1ccc(Cl)cc1 [CHLORPROPAMIDE] | Not Active | Not Active | Not Active | Not Active | Not Active | Not Active | Not Active | Not Active | Not Active | Not Active | – | – | – | – | – | –
CC(=O)OC[C@H]1O[C@@H](n2ncc(=O)[nH]c2=O)[C@H](OC(C)=O)[C@@H]1OC(C)=O [AZARIBINE] | Not Active | Not Active | Not Active | Not Active | Not Active | Not Active | Not Active | Not Active | Not Active | Not Active | – | – | – | – | – | –
NCCCNCCSP(=O)(O)O [AMIFOSTINE] | Not Active | Not Active | Not Active | Not Active | Not Active | Not Active | Not Active | Not Active | Not Active | Not Active | – | – | – | – | – | –
CC(C)(C)NCC(O)COc1cccc2c1CC(O)C(O)C2 (stereo not given) [NADOLOL] | Not Active | Not Active | Not Active | Not Active | Not Active | Not Active | Not Active | Not Active | Not Active | Not Active | – | – | – | – | – | –
C[C@H]1COc2c(N3CCN(C)CC3)c(F)cc3c(=O)c(C(=O)O)cn1c23.C[C@H]1COc2c(N3CCN(C)CC3)c(F)cc3c(=O)c(C(=O)O)cn1c23.O [LEVOFLOXACIN] | Not Active | Not Active | Not Active | Not Active | Not Active | Not Active | Not Active | Not Active | Not Active | Not Active | – | – | – | – | – | –
COc1ccnc(C[S+]([O-])c2nc3ccc(OC(F)F)cc3[nH]2)c1OC (stereo not given) [PANTOPRAZOLE] | Not Active | Not Active | Not Active | Not Active | Not Active | Not Active | Not Active | Not Active | Not Active | Not Active | – | – | – | – | – | –
